Experimental data: ChEMBL document CHEMBL4739712, “Inhibitors of cyclin-dependent kinases” (2020)
Active and inactive are the calls of the source. The rule behind the calls is not given here.

Experiments:
[1] = target: T1, Cyclin-dependent kinase 12/13 (Homo sapiens) (UniProt Q14004+Q9NYV4); conditions: Jurkat, dose 500.0 nM, time 6.0 hrs
[2] = target: T1, Cyclin-dependent kinase 12/13 (Homo sapiens); conditions: Jurkat, dose 500.0 nM, time 4.0 hrs
[3] = target: T1, Cyclin-dependent kinase 12/13 (Homo sapiens); conditions: Jurkat, dose 25.0 nM, time 6.0 hrs

CN(C)C/C=C/C(=O)NC1CCCC(C(=O)Nc2ncc(SCc3ncc(C(C)(C)C)o3)s2)C1 (stereo not given)
inhibition [1]: Active

C=CC(=O)Nc1ccc(C(=O)N2CCC[C@@H](Nc3ncc(SCc4ncc(C(C)(C)C)o4)s3)C2)c(C)c1
inhibition [2]: Active

C=CC(=O)Nc1ccc(OC(=O)N2CCC[C@@H](Nc3ncc(SCc4ncc(C(C)(C)C)o4)s3)C2)cc1
inhibition [1]: Active

C=CC(=O)Nc1cccc(C(=O)N2CCCC(Nc3ncc(SCc4ncc(C(C)(C)C)o4)s3)C2)c1 (stereo not given)
inhibition [3]: inactive | inhibition [1]: Active
